Measured values as given in PubChem BioAssay AID1918993 (Molecular Pharmacology Branch, DTP, NCI, 2023).

Test system: 233499-124-R-J3-PDC complex spheroid growth
Assay: Anticancer human tumor 233499-124-R-J3-PDC patient-derived colon adenocarcinoma cell line growth inhibition [AhR]
Details: for IC50: curve of first compound; for viability, T/C: stronger effect = lower value
Outline: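 Agents were dosed in half-log steps down from roughly clinical Cmax, or from 10 microM where Cmax was unknown, alone and with AhR antagonists. Read-out: percent test/control growth of tumor spheroids containing HUVEC and MSC stromal cells.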

[1] = second compound 0.1 µM, first compound 0.0316 µM
[2] = second compound 0.1 µM, first compound 0.1 µM
[3] = second compound 0.1 µM, first compound 0.316 µM
[4] = second compound 0.1 µM, first compound 1 µM
[5] = second compound 0.1 µM, first compound 3.16 µM
[6] = second compound 0.1 µM, first compound 10 µM
[7] = second compound 0.316 µM, first compound 0.0316 µM
[8] = second compound 0.316 µM, first compound 0.1 µM
[9] = second compound 0.316 µM, first compound 0.316 µM
[10] = second compound 0.316 µM, first compound 1 µM
[11] = second compound 0.316 µM, first compound 3.16 µM
[12] = second compound 0.316 µM, first compound 10 µM
[13] = second compound 1 µM, first compound 0.0316 µM
[14] = second compound 1 µM, first compound 0.1 µM
[15] = second compound 1 µM, first compound 0.316 µM
[16] = second compound 1 µM, first compound 1 µM
[17] = second compound 1 µM, first compound 3.16 µM
[18] = second compound 1 µM, first compound 10 µM
[19] = second compound 3.16 µM, first compound 0.0316 µM
[20] = second compound 3.16 µM, first compound 0.1 µM
[21] = second compound 3.16 µM, first compound 0.316 µM
[22] = second compound 3.16 µM, first compound 1 µM
[23] = second compound 3.16 µM, first compound 3.16 µM
[24] = second compound 3.16 µM, first compound 10 µM
[25] = second compound 10 µM, first compound 0.0316 µM
[26] = second compound 10 µM, first compound 0.1 µM
[27] = second compound 10 µM, first compound 0.316 µM
[28] = second compound 10 µM, first compound 1 µM
[29] = second compound 10 µM, first compound 3.16 µM
[30] = second compound 10 µM, first compound 10 µM
[31] = second compound 0.1 µM, first compound 0.00316 µM
[32] = second compound 0.1 µM, first compound 0.01 µM
[33] = second compound 0.316 µM, first compound 0.00316 µM
[34] = second compound 0.316 µM, first compound 0.01 µM
[35] = second compound 1 µM, first compound 0.00316 µM
[36] = second compound 1 µM, first compound 0.01 µM
[37] = second compound 3.16 µM, first compound 0.00316 µM
[38] = second compound 3.16 µM, first compound 0.01 µM
[39] = second compound 10 µM, first compound 0.00316 µM
[40] = second compound 10 µM, first compound 0.01 µM
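Also: spheroids exposed to agents for seven days before reading.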

Compound	IC50 (second compound 0.1 µM) [µM]	IC50 (second compound 0.316 µM) [µM]	IC50 (second compound 1 µM) [µM]	IC50 (second compound 3.16 µM) [µM]	IC50 (second compound 10 µM) [µM]	viability, T/C [1] [%]	viability, T/C [2] [%]	viability, T/C [3] [%]	viability, T/C [4] [%]	viability, T/C [7] [%]	viability, T/C [8] [%]	viability, T/C [9] [%]	viability, T/C [10] [%]	viability, T/C [13] [%]	viability, T/C [14] [%]	viability, T/C [15] [%]	viability, T/C [19] [%]	viability, T/C [20] [%]	viability, T/C [25] [%]	viability, T/C [26] [%]	further results
CC(C)c1c(-c2ccccc2)nc2c(C#N)c[nH]n2c1=O + CC(CO)NC(=O)c1cc(-c2ccc(Cl)cc2)nn(-c2cnn(C)c2)c1=O	> 10	> 10	> 10	> 10	> 10	100	97.7	99.6	101	113	109	89.5	93.7	107	106	98	101	95.3	98.2	82.5	viability, T/C [5]: 104%; viability, T/C [6]: 105%; viability, T/C [11]: 96.2%; viability, T/C [12]: 102%; viability, T/C [16]: 102%; viability, T/C [17]: 104%; viability, T/C [18]: 100%; viability, T/C [21]: 94.5%; viability, T/C [22]: 96.8%; viability, T/C [23]: 92.4%; viability, T/C [24]: 87.8%; viability, T/C [27]: 93.5%; viability, T/C [28]: 86.3%; viability, T/C [29]: 87.4%; viability, T/C [30]: 96.6%
CC[C@@]1(O)C(=O)OCc2c1cc1n(c2=O)Cc2cc3c(CN(C)C)c(O)ccc3nc2-1 + Cc1ccccc1N=Nc1ccc(NC(=O)c2ccnn2C)c(C)c1	> 0.1	> 0.1	> 0.1	> 0.1	> 0.1	79.4	92.1	–	–	111	91.2	–	–	87.3	95	–	95.9	87.9	101	106	viability, T/C (second compound 0.1 µM, first compound 0.000316 µM): 88.5%; viability, T/C (second compound 0.1 µM, first compound 0.001 µM): 105%; viability, T/C [31]: 113%; viability, T/C [32]: 109%; viability, T/C (second compound 0.316 µM, first compound 0.000316 µM): 114%; viability, T/C (second compound 0.316 µM, first compound 0.001 µM): 110%; viability, T/C [33]: 90.8%; viability, T/C [34]: 98.8%; viability, T/C (second compound 1 µM, first compound 0.000316 µM): 97.9%; viability, T/C (second compound 1 µM, first compound 0.001 µM): 105%; viability, T/C [35]: 89.5%; viability, T/C [36]: 93.2%; viability, T/C (second compound 3.16 µM, first compound 0.000316 µM): 111%; viability, T/C (second compound 3.16 µM, first compound 0.001 µM): 105%; viability, T/C [37]: 96.1%; viability, T/C [38]: 98.2%; viability, T/C (second compound 10 µM, first compound 0.000316 µM): 102%; viability, T/C (second compound 10 µM, first compound 0.001 µM): 113%; viability, T/C [39]: 95.5%; viability, T/C [40]: 104%
Nc1ncn(C2CC(O)C(CO)O2)c(=O)n1 (stereo not given) + Cc1ccccc1N=Nc1ccc(NC(=O)c2ccnn2C)c(C)c1	> 1	> 1	> 1	> 1	> 1	91.7	98.6	91.5	111	93.6	82.9	102	84.5	105	107	103	107	92.5	108	106	viability, T/C [31]: 102%; viability, T/C [32]: 104%; viability, T/C [33]: 81%; viability, T/C [34]: 91.6%; viability, T/C [35]: 93.2%; viability, T/C [36]: 104%; viability, T/C [16]: 113%; viability, T/C [37]: 109%; viability, T/C [38]: 97.3%; viability, T/C [21]: 103%; viability, T/C [22]: 97.4%; viability, T/C [39]: 116%; viability, T/C [40]: 114%; viability, T/C [27]: 115%; viability, T/C [28]: 114%

Further lines, with some results ahead:

IC50 (second compound 0.1 µM) [µM]	IC50 (second compound 0.316 µM) [µM]	IC50 (second compound 1 µM) [µM]	IC50 (second compound 3.16 µM) [µM]	IC50 (second compound 10 µM) [µM]	Compound	viability, T/C [1] [%]	viability, T/C [2] [%]	viability, T/C [3] [%]	viability, T/C [4] [%]	viability, T/C [7] [%]	viability, T/C [8] [%]	viability, T/C [9] [%]	viability, T/C [10] [%]	viability, T/C [13] [%]	viability, T/C [14] [%]	viability, T/C [15] [%]	viability, T/C [19] [%]	viability, T/C [20] [%]	viability, T/C [25] [%]	viability, T/C [26] [%]	further results
> 10	> 10	> 10	> 10	> 10	COc1ccc([C@@H](O)c2cc(-c3ncnc4cc(N5CCOCC5)ccc34)c(F)cc2Cl)nn1 + CC(CO)NC(=O)c1cc(-c2ccc(Cl)cc2)nn(-c2cnn(C)c2)c1=O	104	96	88.8	87	108	99.1	89.7	83	96.2	86.5	76.8	98.3	86.3	90.9	83.8	viability, T/C [5]: 92.8%; viability, T/C [6]: 84.7%; viability, T/C [11]: 75.6%; viability, T/C [12]: 75.3%; viability, T/C [16]: 86.4%; viability, T/C [17]: 73.9%; viability, T/C [18]: 74.8%; viability, T/C [21]: 84.7%; viability, T/C [22]: 88.2%; viability, T/C [23]: 69.5%; viability, T/C [24]: 78.2%; viability, T/C [27]: 66.8%; viability, T/C [28]: 75.2%; viability, T/C [29]: 77%; viability, T/C [30]: 76.9%
> 10	> 10	> 10	> 10	> 10	COc1cc(C2c3cc4c(cc3C(OC3OC5COC(C)OC5C(O)C3O)C3COC(=O)C23)OCO4)cc(OC)c1O (stereo not given) + Cc1ccccc1N=Nc1ccc(NC(=O)c2ccnn2C)c(C)c1	104	101	96	101	99.7	84.7	107	116	95.9	105	98.7	93.4	97.5	106	102	viability, T/C [5]: 95.7%; viability, T/C [6]: 89.7%; viability, T/C [11]: 114%; viability, T/C [12]: 105%; viability, T/C [16]: 88.9%; viability, T/C [17]: 99.1%; viability, T/C [18]: 109%; viability, T/C [21]: 93.7%; viability, T/C [22]: 108%; viability, T/C [23]: 107%; viability, T/C [24]: 114%; viability, T/C [27]: 107%; viability, T/C [28]: 128%; viability, T/C [29]: 106%; viability, T/C [30]: 99.4%
> 10	8.8	> 10	> 10	> 10	COc1cccc2c1C(=O)c1c(O)c3c(c(O)c1C2=O)CC(O)(C(=O)CO)CC3OC1CC(N)C(O)C(C)O1 (stereo not given) + Cc1ccccc1N=Nc1ccc(NC(=O)c2ccnn2C)c(C)c1	87	92.3	102	91.7	80.4	92.6	95.9	85.3	97.2	99	102	88.3	92.1	95.2	95.1	viability, T/C [5]: 83.3%; viability, T/C [6]: 60.2%; viability, T/C [11]: 72.2%; viability, T/C [12]: 47.2%; viability, T/C [16]: 86.3%; viability, T/C [17]: 81.6%; viability, T/C [18]: 71.9%; viability, T/C [21]: 97.7%; viability, T/C [22]: 107%; viability, T/C [23]: 86.8%; viability, T/C [24]: 78%; viability, T/C [27]: 94.4%; viability, T/C [28]: 98.7%; viability, T/C [29]: 96%; viability, T/C [30]: 78.7%
